# Reference: article PMC5487684, “Safety, Pharmacokinetics, and Antiviral Activity of a Novel HIV Antiviral, ABX464, in Treatment-Naive HIV-Infected Subjects in a Phase 2 Randomized, Controlled Study” (Antimicrobial Agents and Chemotherapy, 2017)
# Test system: HIV-infected subjects
# Assay: Safety and tolerability (TEAEs, ECG, laboratory) after repeated oral administration, phase 2a study
# Type: in vivo, human
# Description: Participants were assigned to one of eight groups; each group (with one exception) included eight subjects receiving either ABX464 (n = 6) or the corresponding placebo (n = 2) according to a randomization code. […] In the present study with HIV-infected subjects, the first dose administered was 25 mg, given once or 3 times a day over a 2- to 3-week period. This initial dose was therefore considered safe for assessment of the safety and tolerability of ABX464 after repeated oral administrations in subjects infected by HIV and determination of the potential effect on the HIV viral load.
# The final dosing protocol for each of the eight groups was as follows: group 1, 25 mg every 3 days for 2 to 3 weeks under fasted conditions; group 2, 25 mg once a day (q.d.) for 2 to 3 weeks under fasted conditions; group 3, 50 mg once a day for 2 to 3 weeks under fasted conditions; group 4, 50 mg 3 times a day (t.i.d.) for 4 weeks under fed conditions; group 5, 75 mg once a day for 2 weeks under fed conditions; group 6, 100 mg once a day for 2 to 3 weeks under fasted conditions; group 7, 150 mg every 3 days for 2 to 3 weeks under fed conditions; and group 8, 150 mg once a day for 2 weeks under fed conditions. Per the study protocol, the treatment period was defined as 2 weeks. […] The decision to proceed to the next highest dose was determined by the data and safety monitoring board after review of the laboratory safety data, vital signs, ECGs, and adverse event reports from the group receiving the current dose after 2 weeks of treatment.
# Subjects were hospitalized from the day prior to the first dose to at least the morning of day 2. They were orally dosed with 25-mg capsules of ABX464 with 240 ml water under fed or fasted conditions. According to the group, subjects were dosed with 1, 2, 3, 4, or 6 capsules to deliver 25 mg, 50 mg, 75 mg, 100 mg, or 150 mg product, respectively, or the same number of placebo capsules.
# Safety assessments and laboratory tests were carried out according to the schedules described in Table S4 for groups dosed every day, every 3 days, and 3 times a day. Follow-up visits were scheduled for 7 days after the last dose and subsequently once every week in order to assess the elimination of the main ABX464 metabolite and to assess the viral load. Follow-up visits were terminated when the virus load was within 0.5 log of the baseline value or after 3 follow-up visits, whichever came first. Prior to the statistical analyses, AEs were coded using the Medical Dictionary for Regulatory Activities (MedDRA dictionary; last available version) in order to be tabulated by system organ class (SOC) and preferred term (PT). The AEs were analyzed according to the treatment emergence phase from the first study drug administration on day 1 up to 48 h after the last study drug administration. The number and percentage of subjects with at least one TEAE were tabulated by SOC and PT for each group and dose. The number of occurrences of TEAEs was also analyzed in the same way by SOC and PT for each group and dose, by grade of severity for each group and dose, and by level of causality to the study drug for each group and dose.
# [1] = Group 5 (n = 6), 75 mg q.d., fed, Mild
# [2] = Group 5 (n = 6), 75 mg q.d., fed, Moderate
# [3] = Group 6 (n = 6), 100 mg q.d., fasted, Mild
# [4] = Group 6 (n = 6), 100 mg q.d., fasted, Moderate
# [5] = Group 7 (n = 6), 150 mg every 3 days, fed, Mild
compound,measurement,setting,value
FC(F)(F)Oc1ccc(Nc2ccc3cccc(Cl)c3n2)cc1 [ABX464],Subjects experiencing at least one TEAE: Arthralgia,[1],0 (0.0) No. (%)
same,Subjects experiencing at least one TEAE: Back pain,[1],0 (0.0) No. (%)
same,Subjects experiencing at least one TEAE: Diarrhea,[1],1 (16.7) No. (%)
same,Subjects experiencing at least one TEAE: Flank pain,[1],0 (0.0) No. (%)
same,Subjects experiencing at least one TEAE: Gastrointestinal disorders,[1],5 (83.3) No. (%)
same,Subjects experiencing at least one TEAE: Headache,[1],5 (83.3) No. (%)
same,"Subjects experiencing at least one TEAE: Injury, poisoning, and procedural complications",[1],0 (0.0) No. (%)
same,Subjects experiencing at least one TEAE: Musculoskeletal and connective tissue disorders,[1],0 (0.0) No. (%)
same,Subjects experiencing at least one TEAE: Nausea,[1],3 (50.0) No. (%)
same,Subjects experiencing at least one TEAE: Neck pain,[1],0 (0.0) No. (%)
same,Subjects experiencing at least one TEAE: Nervous system disorders,[1],5 (83.3) No. (%)
same,Subjects experiencing at least one TEAE: Pain in extremity,[1],0 (0.0) No. (%)
same,"Subjects experiencing at least one TEAE: Sciatica, back pain",[1],0 (0.0) No. (%)
same,Subjects experiencing at least one TEAE: Skin abrasion,[1],0 (0.0) No. (%)
same,Subjects experiencing at least one TEAE: Total,[1],6 (100.0) No. (%)
same,Subjects experiencing at least one TEAE: Upper abdominal pain,[1],0 (0.0) No. (%)
same,Subjects experiencing at least one TEAE: Vomiting,[1],4 (66.7) No. (%)
same,Subjects experiencing at least one TEAE: Abdominal pain,[2],0 (0.0) No. (%)
same,Subjects experiencing at least one TEAE: Arthralgia,[2],0 (0.0) No. (%)
same,Subjects experiencing at least one TEAE: Back pain,[2],0 (0.0) No. (%)
same,Subjects experiencing at least one TEAE: Diarrhea,[2],0 (0.0) No. (%)
same,Subjects experiencing at least one TEAE: Flank pain,[2],0 (0.0) No. (%)
same,Subjects experiencing at least one TEAE: Gastrointestinal disorders,[2],1 (16.7) No. (%)
same,Subjects experiencing at least one TEAE: Headache,[2],0 (0.0) No. (%)
same,"Subjects experiencing at least one TEAE: Injury, poisoning, and procedural complications",[2],0 (0.0) No. (%)
same,Subjects experiencing at least one TEAE: Musculoskeletal and connective tissue disorders,[2],0 (0.0) No. (%)
same,Subjects experiencing at least one TEAE: Nausea,[2],1 (16.7) No. (%)
same,Subjects experiencing at least one TEAE: Neck pain,[2],0 (0.0) No. (%)
same,Subjects experiencing at least one TEAE: Nervous system disorders,[2],0 (0.0) No. (%)
same,Subjects experiencing at least one TEAE: Pain in extremity,[2],0 (0.0) No. (%)
same,"Subjects experiencing at least one TEAE: Sciatica, back pain",[2],0 (0.0) No. (%)
same,Subjects experiencing at least one TEAE: Skin abrasion,[2],0 (0.0) No. (%)
same,Subjects experiencing at least one TEAE: Total,[2],1 (16.7) No. (%)
same,Subjects experiencing at least one TEAE: Upper abdominal pain,[2],0 (0.0) No. (%)
same,Subjects experiencing at least one TEAE: Vomiting,[2],0 (0.0) No. (%)
same,Subjects experiencing at least one TEAE: Abdominal pain,[3],0 (0.0) No. (%)
same,Subjects experiencing at least one TEAE: Arthralgia,[3],0 (0.0) No. (%)
same,Subjects experiencing at least one TEAE: Back pain,[3],0 (0.0) No. (%)
same,Subjects experiencing at least one TEAE: Diarrhea,[3],0 (0.0) No. (%)
same,Subjects experiencing at least one TEAE: Flank pain,[3],0 (0.0) No. (%)
same,Subjects experiencing at least one TEAE: Gastrointestinal disorders,[3],2 (33.3) No. (%)
same,Subjects experiencing at least one TEAE: Headache,[3],5 (83.3) No. (%)
same,"Subjects experiencing at least one TEAE: Injury, poisoning, and procedural complications",[3],0 (0.0) No. (%)
same,Subjects experiencing at least one TEAE: Musculoskeletal and connective tissue disorders,[3],0 (0.0) No. (%)
same,Subjects experiencing at least one TEAE: Nausea,[3],0 (0.0) No. (%)
same,Subjects experiencing at least one TEAE: Neck pain,[3],0 (0.0) No. (%)
same,Subjects experiencing at least one TEAE: Nervous system disorders,[3],5 (83.3) No. (%)
same,Subjects experiencing at least one TEAE: Pain in extremity,[3],0 (0.0) No. (%)
same,"Subjects experiencing at least one TEAE: Sciatica, back pain",[3],0 (0.0) No. (%)
same,Subjects experiencing at least one TEAE: Skin abrasion,[3],0 (0.0) No. (%)
same,Subjects experiencing at least one TEAE: Total,[3],6 (100.0) No. (%)
same,Subjects experiencing at least one TEAE: Upper abdominal pain,[3],2 (33.3) No. (%)
same,Subjects experiencing at least one TEAE: Vomiting,[3],0 (0.0) No. (%)
same,Subjects experiencing at least one TEAE: Abdominal pain,[4],0 (0.0) No. (%)
same,Subjects experiencing at least one TEAE: Arthralgia,[4],0 (0.0) No. (%)
same,Subjects experiencing at least one TEAE: Back pain,[4],0 (0.0) No. (%)
same,Subjects experiencing at least one TEAE: Diarrhea,[4],0 (0.0) No. (%)
same,Subjects experiencing at least one TEAE: Flank pain,[4],0 (0.0) No. (%)
same,Subjects experiencing at least one TEAE: Gastrointestinal disorders,[4],1 (16.7) No. (%)
same,Subjects experiencing at least one TEAE: Headache,[4],0 (0.0) No. (%)
same,"Subjects experiencing at least one TEAE: Injury, poisoning, and procedural complications",[4],0 (0.0) No. (%)
same,Subjects experiencing at least one TEAE: Musculoskeletal and connective tissue disorders,[4],0 (0.0) No. (%)
same,Subjects experiencing at least one TEAE: Nausea,[4],0 (0.0) No. (%)
same,Subjects experiencing at least one TEAE: Neck pain,[4],0 (0.0) No. (%)
same,Subjects experiencing at least one TEAE: Nervous system disorders,[4],0 (0.0) No. (%)
same,Subjects experiencing at least one TEAE: Pain in extremity,[4],0 (0.0) No. (%)
same,"Subjects experiencing at least one TEAE: Sciatica, back pain",[4],0 (0.0) No. (%)
same,Subjects experiencing at least one TEAE: Skin abrasion,[4],0 (0.0) No. (%)
same,Subjects experiencing at least one TEAE: Total,[4],3 (50.0) No. (%)
same,Subjects experiencing at least one TEAE: Upper abdominal pain,[4],1 (16.7) No. (%)
same,Subjects experiencing at least one TEAE: Vomiting,[4],0 (0.0) No. (%)
same,Subjects experiencing at least one TEAE: Abdominal pain,[5],0 (0.0) No. (%)
same,Subjects experiencing at least one TEAE: Arthralgia,[5],1 (16.7) No. (%)
same,Subjects experiencing at least one TEAE: Back pain,[5],0 (0.0) No. (%)
same,Subjects experiencing at least one TEAE: Diarrhea,[5],0 (0.0) No. (%)
